Results as given in patent US11083725B2 (priority 2014, dated 2021).

System: NHBE cells
Experiment: Biolog metabolic array: substrate use by NHBE cells with or without CA09 infection
Format: cell-based, human
Conditions: for Substrate use, 590 nm absorbance normalized to zero hour, 1 hr: Biolog PMM2, 1 hr; for Substrate use, 590 nm absorbance normalized to zero hour, 5 hr: Biolog PMM2, 5 hr; for Substrate use, 590 nm absorbance normalized to zero hour, 7 hr: Biolog PMM2, 7 hr
[1] = Control (uninfected) NHBE cells
[2] = Virus (CA09-infected NHBE cells, MOI 1)
[3] = Virus: CA09-infected NHBE cells, MOI 1, Biolog PMM2
[4] = Virus (CA09-infected, MOI 1) NHBE cells

Compound	590 nm absorbance normalized to zero hour (substrate use), 1 hr [1]	590 nm absorbance normalized to zero hour (substrate use), 3 hr [1]	590 nm absorbance normalized to zero hour (substrate use), 4 hr [1]	590 nm absorbance normalized to zero hour (substrate use), 6 hr [1]	590 nm absorbance normalized to zero hour (substrate use), 8 hr [1]	590 nm absorbance normalized to zero hour (substrate use), 9 hr [1]	590 nm absorbance normalized to zero hour (substrate use), 10 hr [1]	590 nm absorbance normalized to zero hour (substrate use), 11 hr [1]	Substrate use, 590 nm absorbance normalized to zero hour, 1 hr [1]	Substrate use, 590 nm absorbance normalized to zero hour, 5 hr [1]	Substrate use, 590 nm absorbance normalized to zero hour, 7 hr [1]	590 nm absorbance normalized to zero hour (substrate use), 1 hr [3]	590 nm absorbance normalized to zero hour (substrate use), 2 hr [3]	590 nm absorbance normalized to zero hour (substrate use), 3 hr [3]	590 nm absorbance normalized to zero hour (substrate use), 4 hr [3]	590 nm absorbance normalized to zero hour (substrate use), 5 hr [3]	590 nm absorbance normalized to zero hour (substrate use), 6 hr [3]	590 nm absorbance normalized to zero hour (substrate use), 7 hr [3]	590 nm absorbance normalized to zero hour (substrate use), 8 hr [3]	590 nm absorbance normalized to zero hour (substrate use), 9 hr [3]	also measured
CC(O)C(C)O (stereo not shown) [2,3-Butanediol]	1.23	1.61	1.58	0.83	1.93	2.09	2.19	2.33	1.23	1.83	1.84	1.66	1.65	0.31	0.33	0.38	0.40	0.42	0.43	0.45	590 nm absorbance normalized to zero hour (substrate use), 2 hr [1]: 1.54; 590 nm absorbance normalized to zero hour (substrate use), 1 hr [2]: 1.66; 590 nm absorbance normalized to zero hour (substrate use), 2 hr [2]: 1.65; 590 nm absorbance normalized to zero hour (substrate use), 3 hr [2]: 0.31; 590 nm absorbance normalized to zero hour (substrate use), 4 hr [2]: 0.33; 590 nm absorbance normalized to zero hour (substrate use), 5 hr [2]: 0.38; 590 nm absorbance normalized to zero hour (substrate use), 6 hr [2]: 0.40; 590 nm absorbance normalized to zero hour (substrate use), 7 hr [2]: 0.42; 590 nm absorbance normalized to zero hour (substrate use), 8 hr [2]: 0.43; 590 nm absorbance normalized to zero hour (substrate use), 9 hr [2]: 0.45; 590 nm absorbance normalized to zero hour (substrate use), 10 hr [2]: 0.42; 590 nm absorbance normalized to zero hour (substrate use), 11 hr [2]: 0.39; 590 nm absorbance normalized to zero hour (substrate use), 10 hr [3]: 0.42; 590 nm absorbance normalized to zero hour (substrate use), 11 hr [3]: 0.39
NCCO [2-Aminoethanol]	1.30	1.12	1.15	0.46	1.06	1.03	1.05	1.07	1.30	1.24	1.07	1.65	2.01	2.38	2.50	2.74	2.88	3.01	3.12	3.41	590 nm absorbance normalized to zero hour (substrate use), 0 hr [1]: 1.00; Substrate use, 590 nm absorbance normalized to zero hour, 0 hr (Control (uninfected) NHBE cells, Biolog PMM2, 0 hr): 1.00; 590 nm absorbance normalized to zero hour (substrate use), 0 hr [4]: 1.00; 590 nm absorbance normalized to zero hour (substrate use), 1 hr [4]: 1.65; 590 nm absorbance normalized to zero hour (substrate use), 2 hr [4]: 2.01; 590 nm absorbance normalized to zero hour (substrate use), 3 hr [4]: 2.38; 590 nm absorbance normalized to zero hour (substrate use), 4 hr [4]: 2.50; 590 nm absorbance normalized to zero hour (substrate use), 5 hr [4]: 2.74; 590 nm absorbance normalized to zero hour (substrate use), 6 hr [4]: 2.88; 590 nm absorbance normalized to zero hour (substrate use), 7 hr [4]: 3.01; 590 nm absorbance normalized to zero hour (substrate use), 8 hr [4]: 3.12; 590 nm absorbance normalized to zero hour (substrate use), 9 hr [4]: 3.41; 590 nm absorbance normalized to zero hour (substrate use), 10 hr [4]: 3.22; 590 nm absorbance normalized to zero hour (substrate use), 11 hr [4]: 3.78; 590 nm absorbance normalized to zero hour (substrate use), 0 hr [3]: 1.00; 590 nm absorbance normalized to zero hour (substrate use), 10 hr [3]: 3.22; 590 nm absorbance normalized to zero hour (substrate use), 11 hr [3]: 3.78
CC(=O)C(C)O (stereo not shown) [3-Hydroxy 2-Butanone]	1.49	1.64	1.71	0.48	1.86	7.44	7.39	2.14	1.49	2.01	1.80	1.24	1.65	2.42	2.37	2.39	2.28	2.37	2.01	2.18	590 nm absorbance normalized to zero hour (substrate use), 2 hr [1]: 1.75; 590 nm absorbance normalized to zero hour (substrate use), 1 hr [2]: 1.24; 590 nm absorbance normalized to zero hour (substrate use), 2 hr [2]: 1.65; 590 nm absorbance normalized to zero hour (substrate use), 3 hr [2]: 2.42; 590 nm absorbance normalized to zero hour (substrate use), 4 hr [2]: 2.37; 590 nm absorbance normalized to zero hour (substrate use), 5 hr [2]: 2.39; 590 nm absorbance normalized to zero hour (substrate use), 6 hr [2]: 2.28; 590 nm absorbance normalized to zero hour (substrate use), 7 hr [2]: 2.37; 590 nm absorbance normalized to zero hour (substrate use), 8 hr [2]: 2.01; 590 nm absorbance normalized to zero hour (substrate use), 9 hr [2]: 2.18; 590 nm absorbance normalized to zero hour (substrate use), 10 hr [2]: 2.16; 590 nm absorbance normalized to zero hour (substrate use), 11 hr [2]: 2.35; 590 nm absorbance normalized to zero hour (substrate use), 10 hr [3]: 2.16; 590 nm absorbance normalized to zero hour (substrate use), 11 hr [3]: 2.35
CC(=O)CC(=O)O [Acetoacetic Acid]	1.24	2.22	2.13	0.39	1.52	1.66	1.49	2.20	1.24	2.15	1.53	1.26	1.40	1.48	1.54	1.64	1.67	1.71	1.74	1.81	590 nm absorbance normalized to zero hour (substrate use), 2 hr [1]: 1.37; 590 nm absorbance normalized to zero hour (substrate use), 1 hr [4]: 1.26; 590 nm absorbance normalized to zero hour (substrate use), 2 hr [4]: 1.40; 590 nm absorbance normalized to zero hour (substrate use), 3 hr [4]: 1.48; 590 nm absorbance normalized to zero hour (substrate use), 4 hr [4]: 1.54; 590 nm absorbance normalized to zero hour (substrate use), 5 hr [4]: 1.64; 590 nm absorbance normalized to zero hour (substrate use), 6 hr [4]: 1.67; 590 nm absorbance normalized to zero hour (substrate use), 7 hr [4]: 1.71; 590 nm absorbance normalized to zero hour (substrate use), 8 hr [4]: 1.74; 590 nm absorbance normalized to zero hour (substrate use), 9 hr [4]: 1.81; 590 nm absorbance normalized to zero hour (substrate use), 10 hr [4]: 1.74; 590 nm absorbance normalized to zero hour (substrate use), 11 hr [4]: 1.81; 590 nm absorbance normalized to zero hour (substrate use), 10 hr [3]: 1.74; 590 nm absorbance normalized to zero hour (substrate use), 11 hr [3]: 1.81
